Reference: patent US9290482B2, “Amino-substituted imidazopyridazines” (BAYER PHARMA AKTIENGESELLSCHAFT, priority 2012, dated 2016)

What follows are compounds tested against human full-length MKNK1 (Homo sapiens, UniProt Q9BUB5, T344D) (assay: MKNK1 kinase high ATP assay (TR-FRET)). Details: 2 mM ATP, 15 min preincubation with MKNK1, TR-FRET.
Type: biochemical
Method: MKNK1 Kinase High ATP Assay
MKNK1-inhibitory activity at high ATP of compounds of the present invention after their preincubation with MKNK1 was quantified employing the TR-FRET-based MKNK1 high ATP assay as described in the following paragraphs.
A recombinant fusion protein of Glutathione-S-Transferase (GST, N-terminally) and human full-length MKNK1 (amino acids 1-424 and T344D of accession number BAA 19885.1), expressed in insect cells using baculovirus expression system and purified via glutathione sepharose affinity chromatography, was purchased from Carna Biosciences (product no 02-145) and used as enzyme. As substrate for the kinase reaction the biotinylated peptide biotin-Ahx-IKKRKLTRRKSLKG (C-terminus in amide form) was used, which can be purchased e.g. from the company Biosyntan (Berlin-Buch, Germany).
For the assay 50 nl nL of a 100fold concentrated solution of the test compound in DMSO was pipetted into a black low volume 384well microtiter plate (Greiner Bio-One, Frickenhausen, Germany), 2 μL of a solution of MKNK1 in aqueous assay buffer [50 mM HEPES pH 7.5, 5 mM magnesium chloride, 1.0 mM dithiothreitol, 0.005% (v/v) Nonidet-P40 (Sigma)] was added and the mixture was incubated for 15 min at 22° C. to allow pre-binding of the test compounds to the enzyme before the start of the kinase reaction. Then the kinase reaction was started by the addition of 3 μL of a solution of adenosine-tri-phosphate (ATP, 3.3 mM=>final conc. in the 5 μL assay volume is 2 mM) and substrate (0.1 μM=>final conc. in the 5 μL assay volume is 0.06 μM) in assay buffer and the resulting mixture was incubated for a reaction time of 30 min at 22° C. The concentration of MKNK1 was adjusted depending of the activity of the enzyme lot and was chosen appropriate to have the assay in the linear range, typical concentrations were in the range of 0.003 μg/mL. The reaction was stopped by the addition of 5 μL of a solution of TR-FRET detection reagents (5 nM streptavidine-XL665 [Cisbio Bioassays, Codolet, France] and 1 nM anti-ribosomal protein S6 (pSer236)-antibody from Invitrogen [#44921G] and 1 nM LANCE EU-W1024 labeled ProteinG [Perkin-Elmer, product no. AD0071]) in an aqueous EDTA-solution (100 mM EDTA, 0.1% (w/v) bovine serum albumin in 50 mM HEPES pH 7.5).
The resulting mixture was incubated for 1 h at 22° C. to allow the formation of complex between the phosphorylated biotinylated peptide and the detection reagents. Subsequently the amount of phosphorylated substrate was evaluated by measurement of the resonance energy transfer from the Eu-chelate to the streptavidine-XL. Therefore, the fluorescence emissions at 620 nm and 665 nm after excitation at 350 nm were measured in a TR-FRET reader, e.g. a Rubystar (BMG Labtechnologies, Offenburg, Germany) or a Viewlux (Perkin-Elmer). The ratio of the emissions at 665 nm and at […] was taken as the measure for the amount of phosphorylated substrate. The data were normalised (enzyme reaction without inhibitor=0% inhibition, all other assay components but no enzyme=100% inhibition).

Row | IC50 [nM] | SMILES
1 | 32 | CN[C@H](C)COc1ccc2ncc(-c3cc4c(OC)nccc4o3)n2n1 (stereo in doubt) [Example 3, 1-{[3-(4-Methoxyfuro[3,2-c]pyridin-2-yl)imidazo[1,2-b]pyridazin-6-yl]oxy}-N-methylpropan-2-amine]
2 | 389 | COc1nccc2oc(-c3cnc4ccc(O[C@@H](CNC5CC5)c5ccc(F)cc5)nn34)cc12 (stereo in doubt) [Example 7, N-[2-(4-Fluorophenyl)-2-{[3-(4-methoxyfuro[3,2-c]pyridin-2-yl)imidazo[1,2-b]-pyridazin-6-yl]oxy}ethyl]cyclopropanamine]
3 | 11 | COc1nccc2oc(-c3cnc4ccc(OC[C@H]5CNCCO5)nn34)cc12 [Example 1, 3-(4-Methoxyfuro[3,2-c]pyridin-2-yl)-6-[(2R)-morpholin-2-ylmethoxy]imidazo-[1,2-b]pyridazine]
4 | 31 | COc1nccc2oc(-c3cnc4ccc(OCC5CNC5)nn34)cc12 [Example 2, 6-(Azetidin-3-ylmethoxy)-3-(4-methoxyfuro[3,2-c]pyridin-2-yl)imidazo[1,2-b]-pyridazine]
5 | 72 | c1cc2oc(-c3cnc4ccc(OC[C@H]5CNCCO5)nn34)cc2cn1 [Example 4, 3-(Furo[3,2-c]pyridin-2-yl)-6-[(2R)-morpholin-2-ylmethoxy]imidazo[1,2-b]-pyridazine]
6 | 86 | c1cnc2cc(-c3cnc4ccc(OC[C@H]5CNCCO5)nn34)oc2c1 [Example 5, 3-(Furo[3,2-b]pyridin-2-yl)-6-[(2R)-morpholin-2-ylmethoxy]imidazo[1,2-b]-pyridazine]
7 | 132 | c1cc2oc(-c3cnc4ccc(OCC[C@@H]5CCCN5)nn34)cc2cn1 [Example 6, 3-(Furo[3,2-c]pyridin-2-yl)-6-{2-[(2S)-pyrrolidin-2-yl]ethoxy}imidazo[1,2-b]-pyridazine]
8 | 48 | COc1nccc2oc(-c3cnc4ccc(OC[C@@H]5CCCCN5)nn34)cc12 [Example 8, 3-(4-Methoxyfuro[3,2-c]pyridin-2-yl)-6-[(2S)-piperidin-2-ylmethoxy]imidazo-[1,2-b]pyridazine]
